Laboratory results taken from patent US9790202B2, “Anthranilamide derivatives as pesticides” (priority 2010, dated 2017).
Read-outs that look alike come from different tables or passages of the source.

Assays:
[1] = log P determination by HPLC on reversed-phase columns (C 18), acidic range; format: physicochemical
Description: The log P values reported in the table above and in the Preparation Examples were determined in accordance with EEC Directive 79/831 Annex V.A8 by HPLC (High Performance Liquid Chromatography) on reversed-phase columns (C 18), with the following methods:
The LC-MS determination in the acidic range is effected at pH 2.7 using 0.1% aqueous formic acid and acetonitrile (contains 0.1% formic acid) as eluents, linear gradient from 10% acetonitrile to 95% acetonitrile
The calibration was effected with unbranched alkan-2-ones (having 3 to 16 carbon atoms) with known log P values (log P values determined on the basis of the retention times by linear interpolation between two successive alkanones).

[2] = test system: larvae of the mustard beetle (Phaedon cochleariae); assay: Phaedon test (PHAECO spray treatment), Use Example 2; format: in vivo; conditions: foliar, 168 h, read-out: efficacy in % (beetle larvae killed)
Description: Phaedon Test (PHAECO Spray Treatment)
(§1) Solvent: 78.0 parts by weight of acetone 1.5 parts by weight of dimethylformamide
(§2) Emulsifier: 0.5 part by weight of alkylaryl polyglycol ether
(§3) To produce an appropriate active ingredient formulation, 1 part by weight of active ingredient is mixed with the stated amounts of solvent and emulsifier, and the concentrate is diluted with emulsifier-containing water to the desired concentration.
Leaf discs of Chinese cabbage (Brassica pekinensis) are sprayed with an active ingredient formulation of the desired concentration and, after drying, populated with larvae of the mustard beetle (Phaedon cochleariae).
After 7 days, the efficacy in % is determined 100% means that all beetle larvae have been killed; 0% means that no beetle larvae have been killed.

[3] = test system: caterpillars of the armyworm (Spodoptera frugiperda); assay: Spodoptera frugiperda test (SPODFR spray treatment); format: in vivo; conditions: Spodoptera frugiperda, foliar, 168 h, read-out: efficacy in % (caterpillars killed)
Description: Spodoptera frugiperda Test (SPODFR Spray Treatment)
as §1, §2, §3
Leaf discs of maize (Zea mays) are sprayed with an active ingredient formulation of the desired concentration and, after drying, populated with caterpillars of the armyworm (Spodoptera frugiperda).
After 7 days, the efficacy in % is determined 100% means that all caterpillars have been killed; 0% means that no caterpillars have been killed.

[4] = test system: green peach aphid (Myzus persicae); assay: Myzus test (MYZUPE spray treatment); format: in vivo; conditions: foliar, 144 h, read-out: efficacy in % (aphids killed)
Description: Myzus Test (MYZUPE Spray Treatment)
Solvent: 78 parts by weight of acetone 1.5 parts by weight of dimethylformamide
as §2, §3
Leaf discs of Chinese cabbage (Brassica pekinensis) infested by all stages of the green peach aphid (Myzus persicae) are sprayed with an active ingredient formulation of the desired concentration.
After 6 days, the efficacy in % is determined 100% means that all aphids have been killed; 0% means that no aphids have been killed.

[5] = reversed-phase C18 HPLC column, pH 2.7, HPLC reversed-phase C 18, pH 2.7, 0.1% aqueous formic acid / acetonitrile, read-out: LOGP (HCOOH)
[6] = 100 g/ha, spray on Chinese cabbage leaf discs, after 6 days
[7] = 100 g/ha, spray on Chinese cabbage leaf discs, after 7 days
[8] = 100 g/ha, spray on maize leaf discs, after 7 days

Row | SMILES | chromatographic logP ([1]; pH 2.7, LOGP (HCOOH)) | pest or weed control at 100 g/ha ([2]; in Brassica rapa) [%] | pest or weed control at 100 g/ha ([3]; in Zea mays) [%] | chromatographic logP [1, 5] | pest or weed control at 100 g/ha [3, 8] [%] | also measured
1 | CC(=O)c1cc(C)c(NC(=O)c2cc(Cn3nnc(C(F)(F)F)n3)nn2-c2ncccc2Cl)c(C(=O)NC(C)C2CC2)c1 (centres unmarked) [Compound 11] | 3.23 | 100 | 100 | – | – | –
2 | CC(=O)c1cc(C)c(NC(=O)c2cc(Cn3nnc(C(F)(F)F)n3)nn2-c2ncccc2Cl)c(C(=O)NC2CC2)c1 [Compound 10] | 2.73 | – | 100 | – | – | –
3 | Cc1cc(C(=O)OC2CCC2)cc(C(=O)NC(C)(C)C)c1NC(=O)c1cc(Cn2nnc(C(F)(F)F)n2)nn1-c1ncccc1Cl [Compound 31] | – | – | – | 4.37 | – | –
4 | COC(=O)c1cc(C)c(NC(=O)c2cc(Cn3nnc(C(F)(F)C(F)(F)F)n3)nn2-c2ncccc2Cl)c(C(=O)NC(C)(C)C)c1 [Compound 27] | – | – | – | 3.85 | 100 | pest or weed control at 100 g/ha [4, 6]: 90%; pest or weed control at 100 g/ha [2, 7]: 100%
5 | CC(=O)c1cc(C)c(NC(=O)c2cc(Cn3nnc(C(F)(F)F)n3)nn2-c2ncccc2Cl)c(C(=O)NC(C)C)c1 [Compound 9] | 2.94 | – | 100 | – | – | –
6 | COC(=O)c1cc(C)c(N)c(C(=O)NC(C)(C)C)c1 [Example No. B, methyl 4-amino-3-(tert-butylcarbamoyl)-5-methylbenzoate] | – | – | – | – | – | chromatographic logP ([1]; reversed-phase C18 HPLC column, pH 2.7, Preparation Example, HPLC reversed-phase C 18, read-out: log P): 2.48
7 | Cc1cc(C(=O)OCC2CCC2)cc(C(=O)NC(C)(C)C)c1NC(=O)c1cc(Cn2nnc(C(F)(F)F)n2)nn1-c1ncccc1Cl [Compound 29] | – | – | – | 4.62 | 100 | –
8 | Cc1cc(C(=O)OCC2CC2)cc(C(=O)NC(C)(C)C)c1NC(=O)c1cc(Cn2nnc(C(F)(F)C(F)(F)F)n2)nn1-c1ncccc1Cl [Compound 28] | – | – | – | 4.54 | 100 | –
9 | CNC(=O)c1cc(C(N)=S)cc(C)c1NC(=O)c1cc(Cn2nnc(C(F)(F)F)n2)nn1-c1ccccc1Cl [Compound 24] | – | – | – | 2.65 | 100 | pest or weed control at 100 g/ha [4, 6]: 90%; pest or weed control at 100 g/ha [2, 7]: 100%
10 | Cc1cc(C(N)=O)cc(C(N)=O)c1NC(=O)c1cc(Cn2nnc(C(F)(F)F)n2)nn1-c1ncccc1Cl [Compound 21] | 1.83 | 100 | 100 | – | – | pest or weed control at 100 g/ha ([4]; in Brassica rapa): 80%
11 | CC(=O)c1cc(C)c(NC(=O)c2cc(Cn3nnc(C(F)(F)F)n3)nn2-c2ccccc2Cl)c(C(=O)NC(C)(C)C)c1 [Compound 12] | – | – | – | 3.76 | 100 | –
12 | Cc1cc(C2OCCO2)cc(C(=O)NC(C)(C)C)c1NC(=O)c1cc(Cn2nnc(C(F)(F)F)n2)nn1-c1ncccc1Cl [Compound 33] | 3.22 | – | 100 | – | – | pest or weed control at 100 g/ha ([4]; in Brassica rapa): 100%
13 | CNC(=O)c1cc(C(C)=O)cc(C)c1NC(=O)c1cc(Cn2nnc(C(F)(F)F)n2)nn1-c1ncccc1Cl [Compound 8] | 2.53 | – | 100 | – | – | –
14 | CNC(=O)c1cc(-n2cncn2)cc(C)c1NC(=O)c1cc(Cn2nnc(C(F)(F)C(F)(F)F)n2)nn1-c1ncccc1Cl [Compound 37] | – | 100 | 100 | – | – | pest or weed control at 100 g/ha ([4]; in Brassica rapa): 80%
15 | CC(=O)c1cc(C)c(NC(=O)c2cc(Cn3nnc(C(F)(F)F)n3)nn2-c2ccccc2Cl)c(C(=O)NC(C)C)c1 [Compound 13] | – | – | – | 3.46 | 100 | pest or weed control at 100 g/ha [2, 7]: 100%
16 | Cc1cc(C2OCCCO2)cc(C(=O)NC(C)(C)C)c1NC(=O)c1cc(Cn2nnc(C(F)(F)F)n2)nn1-c1ncccc1Cl [Compound 38] | 3.37 | – | 100 | – | – | –
17 | Cc1cc(C(N)=O)cc(C(=O)NC2CC2)c1NC(=O)c1cc(Cn2nnc(C(F)(F)F)n2)nn1-c1ncccc1Cl [Compound 20] | 2.11 | 83 | 100 | – | – | –
18 | CNC(=O)c1cc(-n2ccc(C(F)(F)F)n2)cc(C)c1NC(=O)c1cc(Cn2nnc(C(F)(F)F)n2)nn1-c1ncccc1Cl [Compound 34] | 3.48 | 100 | 100 | – | – | –
19 | CNC(=O)c1cc(C(N)=S)cc(C)c1NC(=O)c1cc(Cn2nnc(C(F)(F)C(F)(F)F)n2)nn1-c1ncccc1Cl [Compound 25] | 2.64 | 100 | 100 | – | – | pest or weed control at 100 g/ha ([4]; in Brassica rapa): 100%
20 | CCNC(=O)c1cc(C(C)=O)cc(C)c1NC(=O)c1cc(Cn2nnc(C(F)(F)F)n2)nn1-c1ccccc1Cl [Compound 16] | – | – | – | 3.27 | 100 | –
21 | CNC(=O)c1cc(-n2ccc(C(F)(F)F)n2)cc(C)c1NC(=O)c1cc(Cn2nnc(C(F)(F)C(F)(F)F)n2)nn1-c1ncccc1Cl [Compound 35] | – | – | – | 3.86 | 100 | pest or weed control at 100 g/ha [2, 7]: 100%
22 | Cc1cc(C(N)=O)cc(C(=O)NC(C)(C)C)c1NC(=O)c1cc(Cn2nnc(C(F)(F)F)n2)nn1-c1ncccc1Cl [Compound 18] | 2.5 | 100 | 100 | – | – | pest or weed control at 100 g/ha ([4]; in Brassica rapa): 90%
23 | Cc1cc(C(N)=O)cc(C(=O)NC(C)C)c1NC(=O)c1cc(Cn2nnc(C(F)(F)F)n2)nn1-c1ncccc1Cl [Compound 19] | 2.27 | 100 | 100 | – | – | –
24 | CNC(=O)c1cc(C(=O)OC)cc(C)c1NC(=O)c1cc(Cn2nnc(C(F)(F)F)n2)nn1-c1ccccc1Cl [Compound 30] | – | – | – | 3.28 | 100 | –
25 | Cc1cc(C2OCC(C)(C)CO2)cc(C(=O)NC(C)(C)C)c1NC(=O)c1cc(Cn2nnc(C(F)(F)F)n2)nn1-c1ncccc1Cl [Compound 39] | – | – | – | 4.07 | 100 | –
26 | CNC(=O)c1cc(C(N)=O)cc(C)c1NC(=O)c1cc(Cn2nnc(C(F)(F)F)n2)nn1-c1ncccc1Cl [Compound 17] | 1.94 | 100 | 100 | – | – | pest or weed control at 100 g/ha ([4]; in Brassica rapa): 100%
27 | Cc1cc(C(N)=S)cc(C(=O)NC(C)(C)C)c1NC(=O)c1cc(Cn2nnc(C(F)(F)F)n2)nn1-c1ncccc1Cl [Compound 22] | 2.89 | 100 | 100 | – | – | pest or weed control at 100 g/ha ([4]; in Brassica rapa): 90%
28 | CC(=O)c1cc(C)c(NC(=O)c2cc(Cn3nnc(C(F)(F)F)n3)nn2-c2ccccc2Cl)c(C(=O)NC(C)C2CC2)c1 (centres unmarked) [Compound 14] | – | – | – | 3.74 | 100 | –
29 | Cc1cc(C(N)=S)cc(C(=O)NC(C)(C)C)c1NC(=O)c1cc(Cn2nnc(C(F)(F)C(F)(F)F)n2)nn1-c1ncccc1Cl [Compound 26] | 3.26 | 100 | 100 | – | – | pest or weed control at 100 g/ha ([4]; in Brassica rapa): 100%
